Entries after “also recorded” stand apart in the source; their conditions may differ.

Test [1] concerns human ES cells. Briefly: Test Example 3: addition of various activators in human ES cells, proportion of Cdx2-positive cells by flow cytometry. It is filed as cell-based. The conditions noted are these: 20th day of cultivation; FGF2 50 ng/mL besides BIO (5 ηM) and DAPT (10 μM). Here is the method: With respect to human ES cells, it was examined whether or not addition of FGF2, BMP4 and/or SAG improves an efficiency of differentiation into Cdx2-positive cells in a feeder-free system.
First, for the experiment of inducing the differentiation, human ES cells were plated on gelatin-coated dishes at 69,000 cells/cm^2. The ES cells were cultured for seven days in RPMI 1640 medium (Invitrogen) supplemented with NEAA, L-Gln, PS, β-ME, 10 μg/mL of Insulin (Sigma-Aldrich), 100 ng/mL of recombinant human activin A (R&D Systems, Minneapolis, Minn.), and B27 supplement (Invitrogen). Then, the culture medium was replaced with 10% KSR supplemented with 2,000 mg/mL of glucose, BIO ([…]), DAPT (10 μM) and activators and growth factors at the concentrations as described in Test Example 2. After that, cell culturing was further continued, and the cells were separated on the 9th day and the 20th day of cultivation in the same manner as Example 1, and then, the proportion of Cdx2-positive cells was evaluated by use of flow cytometry. The flow cytometry (FACS) analysis was carried out using BD Cytofix/Cytoperm™ Kit (BD Biosciences) in accordance with a manual provided by the manufacturer.
A general note: A flow cytometer gives signals particle by particle.

A further test deals with mouse ES cells. The experiment in a line: Test Example 2: addition of various activators, proportion of Cdx2-positive cells by flow cytometry, feeder-free. It is filed as cell-based. The conditions noted are these: for Cdx2-positive cells: BIO (5 μM) and DAPT (10 μM) with or without FGF2 50 ng/mL. Here is the method: Therefore, next, an experiment in which the FGF signaling, the BMP signaling and the Hh signaling were activated was carried out. In view of micro-array data showing that MEF cells express FGF2 and BMP4, 50 ng/mL of FGF2 (PEPROTECH) and 25 ng/mL of BMP4 (R&D Systems) were used to activate the FGF signaling and the BMP signaling. Furthermore, as to activation of the Hh signaling, 300 nM of SAG (MERCK) (smoothend agonist; smo) was used.
For the experiment of inducing the differentiation, the induction of differentiation was carried out in a feeder-free system as described below. First, mouse ES cells were plated on a gelatin-coated dish at 6,900 cells/cm^2. The ES cells were cultured for 7 days in DMEM medium (Dulbecco's Modified Eagle Medium) (Invitrogen, Glasgow, UK) containing 4,500 mg/L of glucose, supplemented with NEAA, L-Gln, PS, β-ME, 10 μg/mL of Insulin (Sigma-Aldrich), […] of Transferin (Sigma-Aldrich), 6.7 pg/mL of Selenium (Sigma-Aldrich), 0.25% AlbuMax (Invitrogen), and 10 ng/mL of recombinant human activin A (R&D Systems, Minneapolis, Minn.), and then, the culture medium was replaced with 10% KSR containing 2,000 mg/mL of glucose, BIO (5 μM) and DAPT (10 μM) and further supplemented with the activator or growth factor. After that, cell culturing was further continued, the cells were separated on the 10th day and the 15th day of cultivation as described in Example 1, and then, the proportion of Cdx2-positive cells was evaluated by use of flow cytometry. The flow cytometry (FACS) analysis was carried out using BD Cytofix/Cytoperm™ Kit (BD Biosciences) in accordance with a manual provided by the manufacturer.

Test [2] concerns human ES cells. Briefly: Test Example 4: effect of FGF2 concentration on human ES cells, proportion of Cdx2-positive cells by flow cytometry. The test is classed as cell-based. Here is the method: Since there has been a previous report that a high concentration of FGF2 is important for differentiation of human ES cells into Cdx2-positive cells, it was examined whether or not the same results can be obtained. The final concentration of 250 ng/mL of FGF2 was used. In accordance with the method in Test Example 3, differentiation of human ES cells was carried out on gelatin-coated dishes until they differentiated into endoderm, and then (on the 7th day of cultivation), 0, 50, and 250 ng/mL of FGF2, respectively, were added thereto besides BIO (5 μM) and DAPT (10 μM), and the cells were further cultured until the 9th day or 20th day, and the proportion of Cdx2-positive cells was evaluated by flow cytometry. The flow cytometry (FACS) analysis was carried out using BD Cytofix/Cytoperm™ Kit (BD Biosciences) in accordance with a manual provided by the manufacturer.

The test system of test [3] is definitive endoderm cells. The experiment in a line: Effects of FGFs on intestinal differentiation of definitive endoderm cells (RT-PCR, Cdx2 immunohistochemistry). The test is classed as cell-based, mouse. Here is the method: The ES cells were culture on M15 cells added with 20 ng/mL of activin and 50 ng/mL of bFGF in DMEM medium containing 10% fetal bovine sera and […] of glucose for 5 days, and were analyzed using flow cytometry for definitive endoderm. For intestinal differentiation, the ES cells were further cultured on M15 or MEF cells, in the presence of BIO and DAPT, or without BIO and DAPT but with FGFs, in media with 10% KSR at a glucose concentration of 2000 mg/mL.
256 ng/mL of FGF2 (human bFGF) (Peprotech); and
50 ng/mL of FGF4 (Peprotech), FGF5 (Sigma), FGF7 (R&D Systems), FGF8 (Cosmo Bio), FGF9 (Peprotech), FGF10 (R&D Systems) and FGF18 (Sigma), respectively.
RNA was extracted from the ES cells using TRI Reagent (Sigma) or RNeasy micro-kit (Qiagen), and then, was treated with DNase (Sigma). Three micrograms of RNA were reverse-transcribed using a MMLV reverse transcriptase (Toyobo) and oligo dT primers (Toyobo). The PCR conditions for each cycle include initial denaturation at 96° C. for one minute, and the second and subsequent cycles of denaturation at 96° C. for 30 seconds, annealing at 60° C. for 2 seconds and extension at 72° C. for 20 seconds, and the final cycle of extension at 72° C. for 7 minutes. RT-PCR products were separated by 5% non-denaturing polyacrylamide gel electrophoresis, stained with SYBR Green I (Molecular Probes), and visualized using Gel Logic 200 Imaging System (Kodak).

Test [4] relates to khES-3 (human ES cell line). Briefly: Intestinal differentiation of human ES cells on M15 cells. The arrangement: dose or concentration left out as unconfirmed. The test is classed as cell-based. The conditions noted are these: activin for 10 days. From the text:
Human ES cells (KhES-3) (PMID: 16707099) was those provided by Dr. N. Nakatsuji and Dr. H. Suemori (Kyoto University, Kyoto, Japan), and were used in accordance with the hES cell guidelines of the Japanese government. The undifferentiated hES cells were maintained on a feeder layer of MEF in Knockout DMEM/F12 (Invitrogen) supplemented with 20% KSR, L-Gln, NEAA and β-ME under 3% CO2. To passage the hES cells, hES cell colonies were detached from the feeder layer by treating them with 0.25% trypsin and 0.1 mg/mL of collagenase IV in PBS containing 20% KSR and 1 mM of CaCl2 at 37° C. for 5 minutes, followed by adding a culture medium thereto and gently pipetting them several times to desegregate ES cell clumps into smaller pieces (5-20 cells).
For differentiation induction, the human ES cells were pre-treated with Y27632 (Wako) for 24 hours, and then, they were plated at 50,000 cells per well in 24-well plates that had been pre-coated with M15 cells. The ES cells were dissociated with 0.25% trypsin-EDTA (Invitrogen), and cultured in Y27632 containing an ES maintenance medium for one day. One day after plating, the cells were washed by PBS, and the medium was changed to a differentiation medium. […]

Regarding “FGF2: basic fibroblast growth factor, FGF2 (human bFGF) (Peprotech)”, the “proportion of Cdx2-positive cells” value in the test with human ES cells [1] is listed as “decreased”; with human ES cells [2] (9th day of cultivation, 250 ng/mL of FGF2 besides BIO (5 μM) and DAPT (10 μM)), “decreased”. The values for the Cdx2-positive cells with mouse ES cells (10th day of cultivation) and in the test on mouse ES cells (15th day of cultivation) were 40% and “about 60%”, respectively. Besides, the “number of Cdx2-positive cells versus control (only BIO and DAPT)” value in the test on mouse ES cells (10th day of cultivation, FGF2 50 ng/mL or SAG 300 nM added besides BIO and DAPT) was “significant increase”. Further, the “efficiency of differentiation versus control (only BIO and DAPT)” value in the test with mouse ES cells (15th day of cultivation, FGF2 added besides BIO and DAPT) was “more efficiently differentiate”. In addition, the “proportion of Cdx2 positive cells” value in the test on human ES cells [2] (20th day of cultivation, 0, 50 and 250 ng/mL of FGF2 besides BIO (5 μM) and DAPT (10 μM)) is “decreased depending on the concentration of FGF2”. Besides, the “induction of Cdx2-expressing intestinal cells” value in test [3] (FGFs added from Day 4 of the differentiation, on MEF cells, immunohistochemistry on day 12) is “induced Cdx2-expressing intestinal cells”. Further, the “molecular markers for enterocytes (Ifabp, Isx), goblet cells (Tff3), Paneth cells (Lyz1) and enteroendocrine cells (Sct, Syp, Sst, Gast)” value in test [3] (RT-PCR, day 15, BIO and DAPT, or FGF2 (256 ng/mL) only without BIO and DAPT) is “induced at much lower levels; also recorded: small in extent”.

B1: activin: recombinant human activin-A (R&D Systems) (protein, UniProt P08476 311-426, looked up)
Inhibin beta A chain: GLECDGKVNICCKKQFFVSFKDIGWNDWIIAPSGYHANYCEGECPSHIAGTSGSSLSFHSTVINHYRMRGHSPFANLKSCCVPTKLRPMSMLYYDDGQNIIKKDIQNMIVEECGCS
modifications: Inhibin beta A chain
For B1, the “differentiation of khES-3 into definitive endoderm” value in test [4] is reported as “differentiated into definitive endoderm”.

These data come from patent US9376665B2, “Method for producing intestinal cells” (National University Corporation Kumamoto University, priority 2010, dated 2016).
